Test results as given in ChEMBL document CHEMBL4715753, “Bridging computational modeling with amino acid replacements to investigate GHS-R1a-peptidomimetic recognition” (Eur J Med Chem, 2016).

Target: Growth hormone secretagogue receptor type 1 (Homo sapiens, UniProt Q92847)
Assay: Displacement of [125I-His9]-ghrelin from GHS-R1a (unknown origin) expressed in human HEK293 cells incubated for 20 mins by gamma scintillation counting method
Format: cell-based

Chain of Growth hormone secretagogue receptor type 1 (Q92847 whole entry): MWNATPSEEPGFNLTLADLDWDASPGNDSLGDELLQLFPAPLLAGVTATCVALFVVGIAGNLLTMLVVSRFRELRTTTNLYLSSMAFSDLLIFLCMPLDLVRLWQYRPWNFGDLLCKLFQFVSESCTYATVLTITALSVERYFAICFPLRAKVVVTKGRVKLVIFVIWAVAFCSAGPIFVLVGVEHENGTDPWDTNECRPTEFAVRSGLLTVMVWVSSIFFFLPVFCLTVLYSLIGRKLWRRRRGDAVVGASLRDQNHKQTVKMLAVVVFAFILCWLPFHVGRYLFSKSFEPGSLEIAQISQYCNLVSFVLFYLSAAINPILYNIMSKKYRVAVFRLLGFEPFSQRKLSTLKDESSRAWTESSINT

Structure (SMILES): NCCCC[C@H](NC(=O)[C@H](Cc1ccncc1)NC(=O)[C@@H](Cc1ccc2ccccc2c1)NC(=O)[C@@H](Cc1ccc2ccccc2c1)NC(=O)C1CCNCC1)C(N)=O
- IC50: 25 nM

Structure (SMILES): C[C@H](NC(=O)C1CCNCC1)C(=O)N[C@H](Cc1ccc2ccccc2c1)C(=O)N[C@@H](Cc1ccccc1)C(=O)N[C@@H](CCCCN)C(N)=O
- IC50: > 10000 nM
